Experiments:
Bax = assay: Western blot of apoptosis regulatory proteins in MCF-7 cells; type: cell-based, human; settings: MCF-7, 0.05, 0.1 and 0.5 μM, 48 and 72 h, dose-dependent
Method: (§1) The selective Bcl-2 inhibitor venetoclax was developed as a BH3-mimetic that binds to the pro-survival protein Bcl-2 and inhibits its ability to bind Bax or Bak. Venetoclax has been approved for clinical use in the treatment of chronic lymphocytic leukaemia (CLL). Compound 33 induced downregulation of Bcl-2 expression with corresponding upregulation of Bax at 48 h in a dose-dependent manner. This effect was further increased at 72 h.
(§2) Western blot analysis was performed according to the protocols we previously described. MCF-7 cells were seeded at a density of 1 × 10^5 cells/flask in T25 flasks. After 48 h, whole cell lysates were prepared from untreated cells or cells treated with vehicle control (EtOH, 0.1% v/v) or cells treated with compound 33 (0.05 μM, 0.1 μM and 0.5 μM). MCF-7 cells were harvested in RIPA buffer which was supplemented with protease inhibitors (Roche Diagnostics, Rotkreuz, Switzerland), phosphatase inhibitor cocktail 2 (Sigma-Aldrich, Arklow, Ireland) and phosphatase inhibitor cocktail 3 (Sigma-Aldrich, Arklow, Ireland). Equal amounts of protein (as determined by a BCA assay) were resolved by SDS-PAGE (12%) followed by transfer to PVDF membranes. […] Proteins were detected using enhanced chemiluminescent Western blot detection (Clarity Western ECL substrate) (Bio-Rad) on the ChemiDoc MP System (Bio-Rad). […]

Bcl-2 = assay: as above; type: cell-based, human; settings: MCF-7, 0.05, 0.1 and 0.5 μM, 48 and 72 h, dose-dependent
Method: as §1, §2

[1] = Stability under degradation conditions (HPLC); type: physicochemical
Method: The β-lactam ring is known to undergo hydrolysis/degradation depending on the substituent type on the ring. For example, degradation of monocyclic β-lactam antibiotic aztreonam increased with elevated humidity, temperature and acidic pH buffer. Ezetimibe, a monocyclic β-lactam drug used to reduce blood cholesterol, undergoes degradation and hydrolysis more rapidly in neutral and basic pH conditions than in acidic pH [71]. The stability of representative compounds 33 and 39 was also determined at pH 4, pH 7.4 (plasma) and pH 9 (intestine) by HPLC. […] The electron-withdrawing effect of the 3-fluoro substituent may result in decreasing stability of the β-lactam ring in response to acid hydrolysis.
The stability study for compounds 33 and 39 was performed using analytical HPLC (Symmetry column (C18, […], 4.6 × 150 mm), dual wavelength absorbance detector (Waters 2487), binary HPLC pump (Waters 1525) and autosampler (Waters 717 plus)) with mobile phase acetonitrile (70%)/water (30%), flow rate 1 mL/min over 15 min and detection at λ 254 nm. Stock solutions of compounds 33 and 39 (1 mg/mL in mobile phase) were used. Dilutions of 0.5 mg/mL, 0.25 mg/mL, 0.125 mg/mL, 0.0625 mg/mL, 0.03125 mg/mL, 0.015625 mg/mL and 0.0078 mg/mL were prepared for the calibration curve. (i) Stability of 33 and 39 in phosphate buffers: The phosphate buffers were prepared in accordance with the British Pharmacopoeia 2020 at pH values 4, 7.4 and 9. Stock solution, 300 µL (1 mg/mL ACN), was added to a vial containing buffer (9.7 mL), mixed and pre-heated to 37 °C. 1 mL of the solution was introduced into an HPLC vial. Samples (10 µL) were injected and analysed at time intervals of t = 0 min, 5 min, 30 min, 60 min and hourly for 24 h. The analysis was performed in triplicate. (ii) Thermal stability: Compounds 33 and 39 (1 mL stock solution) were each placed in a vial for 4 h at 60 °C on a heating block. The sample was then cooled, diluted with acetonitrile and analysed by HPLC. (iii) Photostability study: Compounds 33 and 39 (stock solution, 1 mL) were placed in a vial, exposed to UV light for 4 h and then analysed by HPLC. (iv) Stability in acidic conditions: HCl (0.1 M, 0.2 mL) was added to stock solutions (0.8 mL) of 33 and 39 in a vial. The vial was vortexed and retained at room temperature. A sample was neutralised with NaOH (0.1 M, 0.2 mL) each hour for 4 h and then analysed by HPLC. (v) Stability of 33 and 39 in basic (alkaline) conditions: NaOH (0.1 M, 0.2 mL) was added to stock solution (0.8 mL) in a vial. The vial was vortexed and retained at room temperature. A sample was neutralised with HCl (0.1 M, 0.2 mL) every hour for 4 h then analysed by HPLC. (vi) Stability of 33 and 39 in oxidising conditions: H2O2 (3%, 0.2 mL) was added to the stock solution (0.8 mL). The vial was vortexed to obtain a homogeneous mixture and retained at room temperature, and a sample was analysed by HPLC every hour for 4 h.

In the case of COc1ccc(C2C(F)C(=O)N2c2cc(OC)c(OC)c(OC)c2)cc1F (stereo not shown) [Compound 33, 3-Fluoro-4-(3-fluoro-4-methoxyphenyl)-1-(3,4,5-trimethoxyphenyl)azetidin-2-one], the Bax expression (Bax) is reported as “upregulation”, the Bcl-2 expression (Bcl-2) is reported as “downregulation” and the remaining at 4 h, 0.8 mg/mL ([1]; 0.1 M HCl added to stock solution, acidic (0.1 M HCl)) is reported as 60%. For the same compound, the remaining at 4 h, 0.8 mg/mL ([1]; 0.1 M NaOH added to stock solution, alkaline (0.1M NaOH)) was 65%, the remaining at 4 h, 0.8 mg/mL ([1]; 3% H2O2 added to stock solution, oxidative (3% H2O2)) was 65% and the remaining at 4 h, 1 mg/mL ([1]; stock solution in acetonitrile/water under UV light, UV light) was 88%. The remaining at 4 h, 1 mg/mL ([1]; stock solution in acetonitrile/water, heated, heat (60 °C)) was 90%.

— PMC9501633, “Synthesis, Characterisation and Mechanism of Action of Anticancer 3-Fluoroazetidin-2-ones” (Pharmaceuticals, 2022)
